Publication PMC12613816, “Discovery of Novel Isoxazole-Based Small-Molecule Toll-Like Receptor 8 Antagonists” (Journal of Medicinal Chemistry, 2025)

How the values were obtained:
TLR8 [1] = molecular target: T1, TLR8 (Homo sapiens, UniProt Q9NR97); assay: Inhibition of TL8-506-stimulated NF-κB activity (SEAP reporter, QuantiBlue) in hTLR8-HEK293 reporter cells; type: cell-based; set-up: host or cells: HEK293 (HEK-Blue hTLR8); conditions: for inhibition at 10 µM: read-out: % inhibition at 10 µM ± SEM (NF-κB activity); for IC50: read-out: IC50 [μM] (95% CI) hTLR8-HEK293, inhibition of NF-κB activity, 1 h preincubation
T1 sequence (Q9NR97 27-1041): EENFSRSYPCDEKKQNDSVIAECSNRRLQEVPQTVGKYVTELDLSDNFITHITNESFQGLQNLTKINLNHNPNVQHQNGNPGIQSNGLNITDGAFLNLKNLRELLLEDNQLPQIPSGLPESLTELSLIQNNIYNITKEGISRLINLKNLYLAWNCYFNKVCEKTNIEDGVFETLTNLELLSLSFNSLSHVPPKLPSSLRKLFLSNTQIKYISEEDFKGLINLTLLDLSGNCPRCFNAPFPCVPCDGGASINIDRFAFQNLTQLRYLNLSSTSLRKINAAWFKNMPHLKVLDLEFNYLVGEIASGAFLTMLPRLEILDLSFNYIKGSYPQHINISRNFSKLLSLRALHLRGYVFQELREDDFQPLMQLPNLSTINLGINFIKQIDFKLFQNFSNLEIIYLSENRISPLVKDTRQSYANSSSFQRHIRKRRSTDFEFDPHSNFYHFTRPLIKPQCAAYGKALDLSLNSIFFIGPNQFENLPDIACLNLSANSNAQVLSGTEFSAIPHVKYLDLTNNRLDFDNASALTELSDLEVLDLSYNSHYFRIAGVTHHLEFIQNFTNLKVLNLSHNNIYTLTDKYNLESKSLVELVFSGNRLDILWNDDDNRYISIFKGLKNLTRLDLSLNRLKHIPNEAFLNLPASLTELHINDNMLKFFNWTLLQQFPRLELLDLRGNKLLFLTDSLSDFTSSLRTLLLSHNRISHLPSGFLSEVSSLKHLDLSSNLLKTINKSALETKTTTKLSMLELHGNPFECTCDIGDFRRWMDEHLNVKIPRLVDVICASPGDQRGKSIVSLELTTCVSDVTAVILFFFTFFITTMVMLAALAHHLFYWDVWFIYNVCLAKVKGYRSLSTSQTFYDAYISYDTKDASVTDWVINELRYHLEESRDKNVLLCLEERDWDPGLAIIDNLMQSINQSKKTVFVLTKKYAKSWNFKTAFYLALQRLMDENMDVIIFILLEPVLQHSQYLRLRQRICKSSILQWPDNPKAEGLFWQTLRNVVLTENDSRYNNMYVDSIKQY

TLR8 [2] = molecular target: T1, TLR8; conditions: TL8-506 alone
[3] = 10 µM compound, TL8-506 (0.6 μM) 24 h, hTLR8-HEK293

| Compound | inhibition at 10 µM (TLR8 [1]; [3]) [%] | IC50 (TLR8 [1]; TL8-506 (0.6 μM) 24 h) [µM] | also measured |
| --- | --- | --- | --- |
| CCCN1CCC(NC(=O)c2ccc(OCc3c(C)noc3C)cc2)CC1 [Compound 38, 4-((3,5-Dimethylisoxazol-4-yl)methoxy)-N-(1-propylpiperidin-4-yl)benzamide] | 100 ± 0.1 | 0.78 | – |
| C=CCN1CCC(NC(=O)c2ccc(OCc3c(C)noc3C)cc2)CC1 [Compound 41, N-(1-Allylpiperidin-4-yl)-4-((3,5-dimethylisoxazol-4-yl)methoxy)benzamide] | 99 ± 0.7 | 0.5 | – |
| Cc1noc(C)c1COc1ccc(C(=O)NC2CCN(C)C2)cc1 (stereo not drawn) [Compound 19, 4-((3,5-Dimethylisoxazol-4-yl)methoxy)-N-(1-methylpyrrolidin-3-yl)benzamide] | 89 ± 2 | 3.06 | – |
| COc1cc(C(=O)NC2CCN(C)CC2)ccc1OCc1c(C)noc1C [Compound 33, 4-((3,5-Dimethylisoxazol-4-yl)methoxy)-3-methoxy-N-(1-methylpiperidin-4-yl)benzamide] | 94 ± 2 | – | – |
| Cc1noc(C)c1COc1ccc(C(=O)NC2CCN(C)CC2)cc1 [Compound 34, 4-((3,5-Dimethylisoxazol-4-yl)methoxy)-N-(1-methylpiperidin-4-yl)benzamide] | 97 ± 0.9 | 1.68 | – |
| CCOC(=O)C1=Cc2ccc(-c3cccc(C#N)c3)cc2N=C(N)C1 [TL8-506] | – | – | ECmax [%] (95% CI) of TL8-506 (TLR8 [2]): 97.6 (92.9-104.7) %; EC50 (TLR8 [2]; read-out: EC50 [µM] (95% CI) of TL8-506): 0.19 µM |
| Cc1noc(C)c1COc1ccc(C(=O)NCC(c2c(F)cccc2Cl)N(C)C)cc1 (stereo not drawn) [Compound 5] | 37 ± 7 | – | – |
| COc1cc(C(=O)N2CCC(N3CCCC3)CC2)ccc1OCc1c(C)noc1C [Compound 24, (4-((3,5-Dimethylisoxazol-4-yl)methoxy)-3-methoxyphenyl)(4-(pyrrolidin-1-yl)piperidin-1-yl)methanone] | 96 ± 2 | 3.46 | – |
| COc1cc(C(=O)NC2CCN(C)C2)ccc1OCc1c(C)noc1C (stereo not drawn) [Compound 27, 4-((3,5-Dimethylisoxazol-4-yl)methoxy)-3-methoxy-N-(1-methylpyrrolidin-3-yl)benzamide] | 84 ± 4 | 8.15 | – |
| Cc1noc(C)c1COc1cccc(C(=O)N2CCN(C)CC2C)c1 (stereo not drawn) [Compound 3] | -6 ± 2 | – | – |
| Cc1noc(C)c1COc1cccc(C(=O)N2CCCC(C)C2CN)c1 (stereo not drawn) [Compound 2] | 3 ± 2 | – | – |
| Cc1noc(C)c1COc1ccc(C(=O)N2CCC(N3CCCC3)CC2)cc1 [Compound 21, (4-((3,5-Dimethylisoxazol-4-yl)methoxy)phenyl)(4-(pyrrolidin-1-yl)piperidin-1-yl)methanone] | 75 ± 2 | – | – |
| COc1cc(C(=O)N2CCC(N3CCCCC3)CC2)ccc1OCc1c(C)noc1C [Compound 26, [1,4′-Bipiperidin]-1′-yl(4-((3,5-dimethylisoxazol-4-yl)methoxy)-3-methoxyphenyl)methanone] | 77 ± 4 | 18.3 | – |
| CCCCN1CCC(NC(=O)c2ccc(OCc3c(C)noc3C)cc2)CC1 [Compound 40, N-(1-Butylpiperidin-4-yl)-4-((3,5-dimethylisoxazol-4-yl)methoxy)benzamide] | 99 ± 0.4 | 0.73 | – |
| Cc1noc(C)c1COc1ccc(C(=O)N2CCN(Cc3ccccc3)CC2)cc1 [Compound 17, 4-Benzylpiperazin-1-yl(4-((3,5-Dimethylisoxazol-4-yl)methoxy)phenyl)methanone] | 52 ± 4 | – | inhibition of NF-κB at 10 μM (in words) (TLR8 [1]; 10 μM, hTLR8-HEK293): moderate |
| (4-((3,5-Dimethylisoxazol-4-yl)methoxy)-3-methoxyphenyl)(5-methylhexahydropyrrolo[3,4-c]pyrrol-2(1H)-yl)methanone [Compound 25] | – | – | % inhibition at 10 µM ± SEM (NF-κB activity) (TLR8 [1]; [3]): 68 ± 6% |
| Cc1noc(C)c1COc1cccc(C(=O)N2CCCN(Cc3ccc(C(F)(F)F)cc3)CC2)c1 [Compound 7] | 5 ± 7 | – | – |
